The term mortality denotes the share of the test organisms that died.

The results in this text go back to patent US7312248B2, “Control of parasites in animals by the use of novel trifluoromethanesulfonanilide oxime ether derivatives” (Schering-Plough Animal Health Corporation, priority 2004, dated 2007).

SMILES strings stand for the structures.

The first assay has as its system Haemonchus contortus. The assay can be described thus: Haemonchus contortus larvacidal (larval development) assay. The format is in vivo. Particulars: 144 h, lowest concentration inhibiting development in 99% of larvae, eggs to L3, 6 days, range 0.024 to 50 μg/ml, read-out: Haemonchus contortus LD99. On the procedure:
a) Haemonchus Contortus Larvacidal Assay:
The effect of compounds on larval development was determined in the assay described by Gill et al. (1995, International Journal of Parasitology 25:463-470). Briefly, in this assay, nematode eggs were applied to the surface of an agar matrix containing the test compound and then allowed to develop through to the L3, infective stage (6 days). The wells for each dilution of every compound (from highest to lowest concentration) were inspected to determine the well number corresponding to the lowest concentration at which development was inhibited in 99% of the nematode larvae present (LD99). Because well numbers correspond to a two-fold serial dilution of each compound, a titre (dilution factor) is generated as 2^n−1, where n is the well number. By dividing the highest concentration tested by the titre an LD99 value can be obtained, representing the concentration required to inhibit development in 99% of the nematode larvae present. The compounds supplied as solid and viscous liquids were dissolved in DMSO. Twelve serial one-half dilutions in DMSO solution were prepared from the stock solution, each of which was then diluted ⅕ with water. Aliquots (10 μl) of each dilution were transferred to the bioassay plates to give a final concentration range of 0.024 to 50 μg/ml.
Turning to `O=S(=O)(Nc1ccc(Cl)cc1-c1cc(-c2ccccc2)on1)C(F)(F)F` [Compound 225], the IC99 was found to be 3.2 µg/mL.

The assay is the same for the next values; noted with them: 144 h, read-out: Haemonchus contortus LD99.
`CC/C(=N\Oc1ccc(C#N)cc1)c1cc(Cl)ccc1NS(=O)(=O)C(F)(F)F` [Compound 136]: the IC99 amounted to 2.5 µg/mL.

Turning to `C/C(=N\OCc1ccccc1Cl)c1cc(Cl)ccc1NS(=O)(=O)C(F)(F)F` [Compound 17], the IC99 worked out at 3.5 µg/mL.

As for `CC/C(=N\OCc1ccc(C(C)(C)C)cc1)c1cc(Cl)ccc1NS(=O)(=O)C(F)(F)F` [Compound 5], the IC99 was found to be 3.3 µg/mL.

Turning to `CC/C(=N\OCc1c(F)c(F)c(F)c(F)c1F)c1cc(Cl)ccc1NS(=O)(=O)C(F)(F)F` [Compound 77], the IC99 worked out at 2.5 µg/mL.

Take `CCC/C(=N\OCc1cccc(Cl)c1Cl)c1cc(Cl)ccc1NS(=O)(=O)C(F)(F)F` [Compound 99]: the IC99 amounted to 2.5 µg/mL.

With `O=S(=O)(Nc1ccc(Cl)cc1/C(=N/OCc1ccccc1)c1ccccc1)C(F)(F)F` [Compound 66], the IC99 was 13 µg/mL.

On to `O=S(=O)(Nc1ccc(Cl)cc1/C(=N/OCc1ccc(Cl)cc1)c1ccccc1)C(F)(F)F` [Compound 63], for which the IC99 is 1.6 µg/mL.

As to `CCC/C(=N\OCC1CCCCC1)c1cc(Cl)ccc1NS(=O)(=O)C(F)(F)F` [Compound 111], the IC99 was 5 µg/mL.

On to `O=S(=O)(Nc1ccc(Cl)cc1/C(=N/OCc1ccc(C(F)(F)F)cc1C(F)(F)F)c1ccccc1)C(F)(F)F` [Compound 78], for which the IC99 is 1.8 µg/mL.

Turning to `CC(C)/C(=N\OCc1ccc(C(F)(F)F)cc1)c1cc(Cl)ccc1NS(=O)(=O)C(F)(F)F` [Compound 108], the IC99 is 1.3 µg/mL.

For `CC(C)/C(=N\OCc1ccc(Cl)cc1)c1cc(Cl)ccc1NS(=O)(=O)C(F)(F)F` [Compound 117], the IC99 is 3.5 µg/mL.

In the case of `C/C(=N\OCc1cccc(C(F)(F)F)c1)c1cc(Cl)ccc1NS(=O)(=O)C(F)(F)F` [Compound 15], the IC99 came out at 2.7 µg/mL.

As for `C/C(=N\OCc1ccc([N+](=O)[O-])cc1)c1cc(Cl)ccc1NS(=O)(=O)C(F)(F)F` [Compound 4], the IC99 turned out to be 2.5 µg/mL.

In the case of `C/C(=N\OCc1cccc(Cl)c1Cl)c1cc(Cl)ccc1NS(=O)(=O)C(F)(F)F` [Compound 19], the IC99 stood at 0.7 µg/mL.

`CC/C(=N\OCc1ccc(-c2ccccc2)cc1)c1cc(Cl)ccc1NS(=O)(=O)C(F)(F)F` [Compound 94]: the IC99 came to 7.5 µg/mL.

Regarding `C/C(=N\OC(C)c1ccccc1)c1cc(Cl)ccc1NS(=O)(=O)C(F)(F)F` (centres unmarked) [Compound 122], the IC99 amounted to 7 µg/mL.

Turning to `CCC/C(=N\OCc1ccc(Cl)cc1)c1cc(Cl)ccc1NS(=O)(=O)C(F)(F)F` [Compound 112], the IC99 was determined as 3 µg/mL.

With `C/C(=N\OCc1ccccc1)c1cc(Cl)ccc1NS(=O)(=O)C(F)(F)F` [Compound 22], the IC99 amounted to 6 µg/mL.

As for `CC/C(=N\OCc1cccc(C(F)(F)F)c1)c1cc(Cl)ccc1NS(=O)(=O)C(F)(F)F` [Compound 12], the IC99 amounted to 1.7 µg/mL.

Turning to `C/C(=N\OCc1c(Cl)cccc1Cl)c1cc(Cl)ccc1NS(=O)(=O)C(F)(F)F` [Compound 20], the IC99 amounted to 12 µg/mL.

As for `CCC/C(=N\OCc1cc(Br)cc(Br)c1)c1cc(Cl)ccc1NS(=O)(=O)C(F)(F)F` [Compound 113], the IC99 stood at 3.8 µg/mL.

Turning to `CCC/C(=N\OCc1ccc(Cl)c(Cl)c1)c1cc(Cl)ccc1NS(=O)(=O)C(F)(F)F` [Compound 101], the IC99 turned out to be 1.9 µg/mL.

On to `N#Cc1ccc(CO/N=C(\c2ccccc2)c2cc(Cl)ccc2NS(=O)(=O)C(F)(F)F)cc1` [Compound 80], for which the IC99 came out at 3.5 µg/mL.

With `O=S(=O)(Nc1ccc(Cl)cc1/C(=N/OCc1cccc(C(F)(F)F)c1)c1ccccc1)C(F)(F)F` [Compound 68], the IC99 came out at 3.5 µg/mL.

Turning to `O=S(=O)(Nc1ccc(Cl)cc1/C(=N/OCc1cccc(Cl)c1)c1ccccc1)C(F)(F)F` [Compound 71], the IC99 turned out to be 3 µg/mL.

In the case of `CC/C(=N\OCc1ccc(F)cc1)c1cc(Cl)ccc1NS(=O)(=O)C(F)(F)F` [Compound 86], the IC99 is 3.5 µg/mL.

On to `O=S(=O)(Nc1ccc(Cl)cc1/C(=N/OCc1cccc(Cl)c1Cl)c1ccccc1)C(F)(F)F` [Compound 62], for which the IC99 was found to be 3 µg/mL.

Consider `C/C(=N\OCc1cccc(Oc2ccccc2)c1)c1cc(Cl)ccc1NS(=O)(=O)C(F)(F)F` [Compound 47], for which the IC99 was found to be 1.5 µg/mL.

For the compound `CC/C(=N\OCc1cccc(Cl)c1)c1cc(Cl)ccc1NS(=O)(=O)C(F)(F)F` [Compound 7], the IC99 is 1.6 µg/mL.

Regarding `COc1ccc(CO/N=C(\c2ccccc2)c2cc(Cl)ccc2NS(=O)(=O)C(F)(F)F)cc1` [Compound 88], the IC99 was found to be 15 µg/mL.

As for `CC/C(=N\OCCCc1ccccc1)c1cc(Cl)ccc1NS(=O)(=O)C(F)(F)F` [Compound 105], the IC99 turned out to be 3.5 µg/mL.

For `C/C(=N\OCc1ccccc1F)c1cc(Cl)ccc1NS(=O)(=O)C(F)(F)F` [Compound 39], the IC99 came to 7 µg/mL.

With `O=S(=O)(Nc1ccc(Cl)cc1/C=N/OCc1ccc(C(F)(F)F)cc1)C(F)(F)F` [Compound 70], the IC99 was found to be 3 µg/mL.

As for `CC/C(=N\OCc1ccccc1)c1cc(Cl)ccc1NS(=O)(=O)C(F)(F)F` [Compound 107], the IC99 was 10 µg/mL.

For the compound `O=S(=O)(Nc1ccc(Cl)cc1/C=N/OCc1ccc(Cl)cc1)C(F)(F)F` [Compound 81], the IC99 worked out at 1.7 µg/mL.

For `C/C(=N\OCc1ccccc1C(F)(F)F)c1cc(Cl)ccc1NS(=O)(=O)C(F)(F)F` [Compound 13], the IC99 is 3 µg/mL.

Consider `CC/C(=N\OCc1c(Cl)cccc1Cl)c1cc(Cl)ccc1NS(=O)(=O)C(F)(F)F` [Compound 8], for which the IC99 is 13 µg/mL.

With `CCC/C(=N\OCCOc1ccccc1)c1cc(Cl)ccc1NS(=O)(=O)C(F)(F)F` [Compound 115], the IC99 amounted to 7.5 µg/mL.

As to `CC(C)/C(=N\OCc1ccc(C2CCCCC2)cc1)c1cc(Cl)ccc1NS(=O)(=O)C(F)(F)F` [Compound 118], the IC99 was found to be 10 µg/mL.

With `O=S(=O)(Nc1ccc(Cl)cc1/C(=N/OCc1ccccc1C(F)(F)F)c1ccccc1)C(F)(F)F` [Compound 69], the IC99 amounted to 2.7 µg/mL.

In the case of `CCC/C(=N\OCCc1ccccc1)c1cc(Cl)ccc1NS(=O)(=O)C(F)(F)F` [Compound 110], the IC99 worked out at 5 µg/mL.

With `C/C(=N\OCc1cccc(Cl)c1)c1cc(Cl)ccc1NS(=O)(=O)C(F)(F)F` [Compound 18], the IC99 was 3.7 µg/mL.

As to `O=S(=O)(Nc1ccc(Cl)cc1/C(=N/OCc1ccc(Br)cc1)c1ccccc1)C(F)(F)F` [Compound 64, N-{2-[(4-bromobenzyloxyimino)phenylmethyl]-4-chlorophenyl}trifluoromethanesulfonamide], the IC99 stood at 1.4 µg/mL.

With `C/C(=N\OCc1ccc(Br)cc1)c1cc(Cl)ccc1NS(=O)(=O)C(F)(F)F` [Compound 23], the IC99 came to 0.8 µg/mL.

As to `O=S(=O)(Nc1ccc(Cl)cc1/C=N/OCc1cccc(Cl)c1Cl)C(F)(F)F` [Compound 95], the IC99 came out at 0.8 µg/mL.

For the compound `CC(C)/C(=N\OCc1ccc(Cl)cc1Cl)c1cc(Cl)ccc1NS(=O)(=O)C(F)(F)F` [Compound 119], the IC99 was 1.2 µg/mL.

Take `CCC/C(=N\OCc1ccc(Br)cc1)c1cc(Cl)ccc1NS(=O)(=O)C(F)(F)F` [Compound 102]: the IC99 turned out to be 1.9 µg/mL.

Regarding `O=S(=O)(Nc1ccc(Cl)cc1/C(=N/OCc1ccc(F)cc1F)c1ccccc1)C(F)(F)F` [Compound 82], the IC99 was 3.3 µg/mL.

The next assay relates to cat flea (Ctenocephalides felis). The assay can be described thus: whole plant or invertebrate. The format is in vivo. Particulars: Ctenocephalides felis, 8 h, read-out: C. felis Mortality (%) 8 h, 8 h; Laboratory 1 A data. On the procedure: b) Ctenocephalides felis Adulticide Assay: C. felis Single Dose Screen
Mortality of fleas was the primary endpoint in the assay. Fleas were considered dead if they didn't move or were on their sides and unable to walk or right themselves. […] The concentration chosen (1.26 μg/cm^2) was higher than that known to kill 90% of cat fleas (LC90) using the reference compound, permethrin.
The test species was the cat flea (Ctenocephalides felis). The strain used was obtained from external suppliers as pupae and held in the laboratory under testing conditions until the adults had emerged. Fifteen (15) fleas were used in a minimum of four replicates against a single concentration level (approximately 60 fleas). The insects were selected to be in the adult life stage, aged between 3 and 7 days post emergence.
The compounds to be tested were supplied as solids and were prepared in acetone as described below prior to testing. Samples were stored in a refrigerator (5±1° C.) unless otherwise specified.
During the mortality testing, the temperature was maintained at 25±1° C. Humidity was maintained at 75±5%. The base (area=159 mm^2) of a 100 mL glass Erlenmeyer (conical) flask provided the treatment surface. Flasks were pretreated with Coatasil™ glass treatment to maximise bio-availability of test compounds by preventing them from binding to glass the surface. The base of the 100 mL Erlenmeyer flask was treated with 0.5 mL of test sample in acetone and gently swirled. This volume was sufficient to cover the base of the flask. Flasks were left to dry for 24 hours before flea exposure.
Adult cat fleas were placed into a sorting chamber, which allowed fleas to jump into the Erlenmeyer flasks. Fifteen (15) adult cat fleas were collected in each flask. The top of the flasks were then covered in Parafilm™ and small holes were made to allow gas exchange. A 0.5 mL volume of acetone as a solvent control was applied to the base of an Erlenmeyer flask and the testing proceeded in the same manner described above. Cat fleas in the treatment containers were held under testing conditions for 8, 24 and/or 48 hours. Mortality was recorded at 8, 24, 8 and 24, or 24 and 48 hours. Pooled 8, 24, 8 and 24, and 24 and 48 hour mortality data were converted to percentages and are summarized by Tables 14, 14A and 14B, below.
As to `CC/C(=N\OCc1ccc(C(C)(C)C)cc1)c1cc(Cl)ccc1NS(=O)(=O)C(F)(F)F` [Compound 5], the mortality at 1.26 µg/cm2, 1.26 µg/cm2 is 8%.

`CC/C(=N\OCc1c(F)c(F)c(F)c(F)c1F)c1cc(Cl)ccc1NS(=O)(=O)C(F)(F)F` [Compound 77]: the mortality at 1.26 µg/cm2, 1.26 µg/cm2 worked out at 3%.

Consider `O=S(=O)(Nc1ccc(Cl)cc1/C(=N/OCc1ccc(C(F)(F)F)cc1C(F)(F)F)c1ccccc1)C(F)(F)F` [Compound 78], for which the mortality at 1.26 µg/cm2, 1.26 µg/cm2 was 21%.

Consider `CC(C)/C(=N\OCc1ccc(C(F)(F)F)cc1)c1cc(Cl)ccc1NS(=O)(=O)C(F)(F)F` [Compound 108], for which the mortality at 1.26 µg/cm2, 1.26 µg/cm2 was found to be 12%.

The same assay, now with this note: Ctenocephalides felis, 8 h, read-out: C. felis Mortality (%) 8 h, 8 h; Laboratory 2 B data.
As to `CCC/C(=N\OCC1CCCCC1)c1cc(Cl)ccc1NS(=O)(=O)C(F)(F)F` [Compound 111], the mortality at 1.26 µg/cm2, 1.26 µg/cm2 is 9%.

The assay is the same for the next values; noted with them: Ctenocephalides felis, 24 h, read-out: C. felis Mortality (%) 24 h, 24 h; Laboratory 1 A data.
On to `CC/C(=N\Oc1ccc(C#N)cc1)c1cc(Cl)ccc1NS(=O)(=O)C(F)(F)F` [Compound 136], for which the mortality at 1.26 µg/cm2, 1.26 µg/cm2 was found to be 74%.

Still in this assay, the particulars now being: Ctenocephalides felis, 24 h, read-out: C. felis Mortality (%) 24 h, 24 h; Laboratory 2 B data.
Turning to `CCC/C(=N\OCC1CCCCC1)c1cc(Cl)ccc1NS(=O)(=O)C(F)(F)F` [Compound 111], the mortality at 1.26 µg/cm2, 1.26 µg/cm2 turned out to be 70%.
